The nature of data set [1]: Plasma-protein binding by RED, mouse. Conditions: pH 7.2, read-out: Plasma-protein binding by RED (% unbound compound, average n=2). Format: in vitro ADME. How it is done: The assay was run in a deep well plate containing RED inserts with semipermeable dialysis membranes. The reaction was started by adding the compounds to a blank plasma in a 5 μM concentration. Opposite to the blank plasma was a compartment containing isotonic sodium–phosphate buffer (pH 7.2) separated from the plasma by the membrane. The plate was equilibrated in a water bath at 37 °C for 4 h. Samples from both the plasma and the buffer side were matrix compensated before protein precipitation. The samples were centrifuged, and the supernatants were diluted and analyzed by LC–MS/MS to determine the % unbound compound. Two incubations per compound per species.

The nature of data set [2]: Metabolic stability in rat liver microsomes. Format: in vitro ADME. To be noted: for Metabolic stability in rat microsomes, Exp. 1 / Metabolic stability in rat microsomes, Exp. 2: intrinsic clearance, 1 µM compound; for microsomal CLint at 1 µM: rat liver microsomes, read-out: intrinsic clearance Clint. How it is done: The assay was run in a 96-deep well format and solutions were prepared containing microsomes in phosphate buffer. The microsomes employed were from humans, rats, and mice. The reaction was initiated by addition of NADPH after preincubation at 37 °C with test compounds. The reaction was stopped by the addition of acetonitrile (ACN) at six time points (0, 5, 10, 15, 25, and 45 min), the samples were centrifuged, and the supernatant was diluted to determine the loss of compound by LC–MS/MS. Two incubations per compound per species. For further details regarding working concentrations, volumes, and final concentrations at incubation, refer to the supplementary section (Table S6). […]
Metabolic Metabolic Metabolic stability in stability in stability in Plasma-protein human mouse rat In vitro plasma stability binding by RED
Assay/compo microsome microsome microsome (% compound remaining after (% unbound und s s s 23 h) compound, (µL/min/m (µL/min/m (µL/min/m average n=2) g protein) g protein) g protein)
Exp. Exp. Exp. Exp. Exp. Exp. Hum Mou Ra Do Mini Hum Mou Ra […]
Conc. of W orki ng Vol ume i n Fi nal conc. At sol uti on assay incubation
577 m g / m L520 µ L0. […]

In the next data set the target is T1, PmSiaT (Proteus mirabilis, UniProt B4EZY7).
T1 construct: made in house
T1 sequence (B4EZY7 1-496): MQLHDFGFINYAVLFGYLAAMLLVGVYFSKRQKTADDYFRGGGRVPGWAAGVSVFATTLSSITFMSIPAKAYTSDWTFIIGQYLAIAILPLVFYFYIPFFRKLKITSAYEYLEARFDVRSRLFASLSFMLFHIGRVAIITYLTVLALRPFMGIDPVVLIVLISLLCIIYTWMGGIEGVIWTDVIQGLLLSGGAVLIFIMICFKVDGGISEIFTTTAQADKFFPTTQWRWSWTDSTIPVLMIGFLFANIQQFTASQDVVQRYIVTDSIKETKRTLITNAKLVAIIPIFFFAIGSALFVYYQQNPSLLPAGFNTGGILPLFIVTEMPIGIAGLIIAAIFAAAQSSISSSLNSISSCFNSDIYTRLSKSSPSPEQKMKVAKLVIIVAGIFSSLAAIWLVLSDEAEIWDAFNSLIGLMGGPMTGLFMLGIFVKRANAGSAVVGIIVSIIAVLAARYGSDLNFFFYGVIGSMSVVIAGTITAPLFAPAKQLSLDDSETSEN
Put plainly: [3H]Neu5Ac efflux in proteoliposomes, PmSiaT. Conditions: 0.1 mM external compound. Format: biochemical. The procedure: Figure 5 Kinetic analysis of the inhibition of recombinant SiaT from P. mirabilis (A,B) and S. aureus (C,D) reconstituted in proteoliposomes and [^3H]Neu5Ac efflux in proteoliposomes (E,F). (a–d) Data were plotted according to Lineweaver–Burk as a reciprocal transport rate vs reciprocal Neu5Ac concentration. The transport rate was measured, in 5 min, by adding [^3H] Neu5Ac at the indicated concentrations to proteoliposomes containing 20 mM K^+-gluconate in the presence of valinomycin as described in the Supporting Information. [(A,B) P. mirabilis SiaT]; (A) compound 3f 0.25 μM (●) or 0.75 μM (□) was added in comparison to samples without inhibitor (○). (B) Compound 3e 12 μM (●) or 40 μM (□) was added in comparison to samples without an inhibitor (○). [(C,D) S. aureus SiaT]. (C) Compound 3f 80 μM (●) or 200 μM (□) was added in comparison to samples without an inhibitor (○). (D) Compound 3e 5 μM (●) or 12 μM (□) was added in comparison to samples without an inhibitor (○). Results are mean ± s.d. from four independent experiments (n = 4). […] Data are calculated as the percent of residual activity with respect to the control sample (efflux time zero). The results are the means ± s.d. of three independent experiments. […]
For uptake experiments, 600 μL of proteoliposomes were loaded onto a Sephadex G-75 column (0.7 cm diameter × 15 cm height), pre-equilibrated with 20 mM Hepes Tris pH 7.0 with 40 mM sucrose to balance the internal osmolarity. […] For kinetic measurement, the initial transport rate was measured by stopping the reaction after 5 min, that is, within the initial linear range of [^3H]-Neu5Ac uptake into the proteoliposomes previously described. […] In both uptake and efflux experiments, the transport assay was terminated by loading each proteoliposome sample (100 μL) on a Sephadex G-75 column (0.6 cm diameter × 8 cm height) to remove the external radioactivity. Proteoliposomes were eluted with 1 mL of 50 mM NaCl and collected in a 4 mL of scintillation mixture, vortexed and counted. […]

Some results are limits rather than exact numbers.

`CC(=O)NC1C(OCc2ccccc2)CC(O)(C(=O)O)OC1C(O)C(O)CO` (stereo not drawn) [Compound 3a]: the fraction unbound at 4 h, 5 μM in data set [1] turned out to be 0.63. Also, in data set [2], the “Metabolic stability in rat microsomes, Exp. 1” value (“Metabolic stability … Exp. 1” for short) is given as < 10 µL/min/mg protein; the “Metabolic stability in rat microsomes, Exp. 2” value (shortened to “Metabolic stability … Exp. 2”) was < 10 µL/min/mg protein; the microsomal CLint at 1 µM was < 10 µL/min/mg.
Take `CC(=O)NC1C(OCc2cc(F)cc(F)c2)CC(O)(C(=O)O)OC1C(O)C(O)CO` (stereo not drawn) [Compound 3e]: in data set [1], the fraction unbound at 4 h, 5 μM came out at 0.63. Besides, in data set [2], the “Metabolic stability … Exp. 1” value is given as < 10 µL/min/mg protein; the “Metabolic stability … Exp. 2” value is given as < 10 µL/min/mg protein; the microsomal CLint at 1 µM is < 10 µL/min/mg. On PmSiaT, the “[3H]Neu5Ac efflux induced” value was “did not cause any [^3H]Neu5Ac efflux”.
On to `CC(=O)NC1C(OCc2cc(Br)cc(Br)c2)CC(O)(C(=O)O)OC1C(O)C(O)CO` (stereo not drawn) [Compound 3f], for which the fraction unbound at 4 h, 5 μM in data set [1] was 0.23. For the same compound, in data set [2], the “Metabolic stability … Exp. 1” value was < 10 µL/min/mg protein; the “Metabolic stability … Exp. 2” value is listed as < 10 µL/min/mg protein; the microsomal CLint at 1 µM was < 10 µL/min/mg. For the same compound, the “[3H]Neu5Ac efflux induced” value at PmSiaT is “did not cause any [^3H]Neu5Ac efflux”.
For the compound `CC(=O)N[C@H]1[C@H]([C@H](O)[C@H](O)CO)OC(O)(C(=O)O)C[C@@H]1O` (stereo partly drawn) [Neu5Ac, 5-N-acetyl neuraminic acid, reference compound], the “[3H]Neu5Ac efflux induced” value on PmSiaT is listed as “slow but measurable counter flow”.
